Columns and labels:
Recombinant human DDR2 = Recombinant human DDR2 (Homo sapiens (Human), UniProt Q16832); test: LanthaScreen Eu Kinase Binding Assay, DDR2; details: DDR2 1.75 nM (aa427-855, GST tag), Kinase Tracer 178 10 nM; for IC50: read-out: DDR2 pIC50 (converted)
Procedure, shortened: (§1)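 GST-tagged kinase domains (DDR1 aa440-876 at 2.5 nM; DDR2 aa427-855 at 1.75 nM) were preincubated 30 min at room temperature with compound in HEPES pH 7.3 buffer. Then 1 nM Eu-anti-GST plus Tracer 178 (5 nM DDR1, 10 nM DDR2) were added; after 60 min, TR-FRET gave IC50 by four-parameter fit, ≥2 replicates.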

Recombinant human DDR1 = Recombinant human DDR1 (Homo sapiens (Human), UniProt Q08345); test: LanthaScreen Eu Kinase Binding Assay, DDR1; details: DDR1 2.5 nM (aa440-876, GST tag), Kinase Tracer 178 5 nM; for IC50: read-out: DDR1 pIC50 (converted)
Recombinant human DDR1, sequence (Q08345 other isoform, or with tags, fused parts or gaps): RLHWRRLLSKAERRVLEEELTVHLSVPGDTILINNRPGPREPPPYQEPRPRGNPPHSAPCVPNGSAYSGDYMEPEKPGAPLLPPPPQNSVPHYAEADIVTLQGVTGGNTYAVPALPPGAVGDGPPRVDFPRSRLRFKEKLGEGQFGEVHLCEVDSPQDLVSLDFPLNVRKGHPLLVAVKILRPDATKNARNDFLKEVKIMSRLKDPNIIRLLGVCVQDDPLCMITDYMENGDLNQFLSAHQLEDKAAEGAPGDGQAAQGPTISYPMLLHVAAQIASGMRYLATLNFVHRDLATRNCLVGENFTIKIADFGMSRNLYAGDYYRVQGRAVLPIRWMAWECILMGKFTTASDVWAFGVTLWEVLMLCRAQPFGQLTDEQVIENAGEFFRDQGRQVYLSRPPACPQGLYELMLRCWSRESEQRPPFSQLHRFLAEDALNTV
Procedure, shortened: as §1

Recombinant human DDR2, sequence (Q16832 427-855): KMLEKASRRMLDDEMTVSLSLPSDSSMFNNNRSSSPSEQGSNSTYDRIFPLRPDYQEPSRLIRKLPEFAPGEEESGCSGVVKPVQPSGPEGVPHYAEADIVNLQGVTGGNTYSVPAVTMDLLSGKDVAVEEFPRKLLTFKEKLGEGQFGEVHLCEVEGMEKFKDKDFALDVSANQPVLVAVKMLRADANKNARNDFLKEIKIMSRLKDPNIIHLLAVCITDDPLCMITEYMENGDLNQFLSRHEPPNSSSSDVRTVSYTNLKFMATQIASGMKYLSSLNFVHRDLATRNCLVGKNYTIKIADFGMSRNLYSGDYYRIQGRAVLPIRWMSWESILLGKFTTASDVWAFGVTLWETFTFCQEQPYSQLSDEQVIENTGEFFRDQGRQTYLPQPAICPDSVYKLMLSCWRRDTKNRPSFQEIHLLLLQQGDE

In the case of `N#Cc1cc(Nc2cccc3c2C(=O)N(CC(=O)NCC(F)(F)F)C3)cc2cn[nH]c12` [Example 60, 2-[7-[(7-cyano-1H-indazol-5-yl)amino]-1-oxo-isoindolin-2-yl]-N-(2,2,2-trifluoroethyl)acetamide], the “DDR2 pIC50” value (Recombinant human DDR2) is reported as “A (pIC50>8)” and the “DDR1 pIC50” value (Recombinant human DDR1) is reported as “A (pIC50>8)”.
With `Cc1n[nH]c2cc(Nc3cccc4c3C(=O)N(CC(=O)N3CCO[C@@H](C(F)(F)F)C3)C4)ccc12` [Example 47, 7-[(3-methyl-1H-indazol-6-yl)amino]-2-[2-oxo-2-[(2R)-(trifluoromethyl)morpholin-4-yl]ethyl]isoindolin-1-one] the IC50 (Recombinant human DDR2) was 10 to 100 nM and the “DDR1 pIC50” value (Recombinant human DDR1) was “A (pIC50>8)”.
`Cn1ncc2cc(Nc3cccc4c3C(=O)N(CC(=O)N3CCO[C@H](C(F)(F)F)C3)C4)cnc21` [Example 54, 7-[(1-methylpyrazolo[3,4-b]pyridin-5-yl)amino]-2-[2-oxo-2-[(2S)-(trifluoromethyl)morpholin-4-yl]ethyl]isoindolin-1-one] showed an IC50 (Recombinant human DDR2) of 100 to 1000 nM and an IC50 (Recombinant human DDR1) of 100 to 1000 nM.
`CN(c1ccc2c(cnn2C)c1)c1cccc2c1C(=O)N(CC(=O)N1CCC[C@H]1C(F)F)C2` [Example 95, 7-[methyl-(1-methylindazol-5-yl)amino]-2-[2-oxo-2-[(2S)-(difluoromethyl)pyrrolidin-1-yl]ethyl]isoindolin-1-one] gave an IC50 (Recombinant human DDR2) of 10 to 100 nM and an IC50 (Recombinant human DDR1) of 10 to 100 nM.
